According to the RepoRT retention time repository (doi:10.1021/acs.analchem.1c00972):
One block for each molecule: values may come before it.

Tests used:
[1] = RP, Waters ACQUITY UPLC BEH C18, 100 × 1 mm, 1.7 µm, 50 °C, 0.3 mL/min, estimated dead time 0.17 min; A: water + 10 mM ammonium bicarbonate; B: 10% water + 90% methanol + 10 mM ammonium bicarbonate; gradient (min/%B) 0/0 15/100 21/100 22/0 30/0; conditions: stereoisomer not certain
[2] = RP, Waters ACQUITY UPLC BEH C18, 100 × 1 mm, 1.7 µm, 50 °C, 0.3 mL/min, estimated dead time 0.17 min; A: water + 0.1% formic acid + 20 mM ammonium formate; B: methanol + 0.1% formic acid + 20 mM ammonium formate; gradient (min/%B) 0/0 15/100 21/100 22/0 30/0; conditions: stereoisomer not certain

SMILES: CNC(=O)C=C(C)OP(=O)(OC)OC [Monocrotophos (Crisodin)]
LC retention time [1]: 8.11 min

SMILES: CNC(=O)CSP(=O)(OC)OC [Omethoate]
LC retention time [1]: 6.12 min

SMILES: COP(=O)(OC)OC(C)=CC(=O)N(C)C [Dicrotophos]
LC retention time [1]: 8.69 min

SMILES: CNC(=O)ON=C(C)C(C)S(C)(=O)=O (stereo unspecified) [Butoxycarboxim]
LC retention time [1]: 9.41 min

SMILES: CCOCCN(C(=O)CCl)C(=C(C)C)c1ccccc1 [Pethoxamid]
LC retention time [1]: 15.3 min

SMILES: Nc1ccccc1C(=O)O [Anthranilic acid]
LC retention time [1]: 2.1 min

SMILES: CC1(C)CON(Cc2ccccc2Cl)C1=O [Clomazone]
LC retention time [1]: 13.9 min

SMILES: CCOP(=S)(OCC)SCn1nnc2ccccc2c1=O [Ethyl azinphos]
LC retention time [1]: 15 min

SMILES: Cc1cccc(C)c1N(Cn1cccn1)C(=O)CCl [Metazachlor]
LC retention time [1]: 13.3 min

SMILES: CC(C)(C)c1ccc(CSc2cnn(C(C)(C)C)c(=O)c2Cl)cc1 [Pyridaben]
LC retention time [1]: 18.3 min

SMILES: CC(N)C(O)c1ccccc1 (stereo unspecified) [Cathine]
LC retention time [1]: 8.36 min

SMILES: Nc1cccc(Cl)c1 [3-Chloroaniline]
LC retention time [1]: 10.6 min

SMILES: CC1(c2ccc(Oc3ccccc3)cc2)OC(=O)N(Nc2ccccc2)C1=O (stereo unspecified) [Famoxadone]
LC retention time [1]: 16.1 min

SMILES: COc1ccc2c3c1OC1C(=O)CCC4C(C2)N(C)CCC314 (stereo unspecified) [Hydrocodone]
LC retention time [1]: 12.1 min

SMILES: CNC(C)C(O)c1ccccc1 (stereo unspecified) [Ephedrine]
LC retention time [1]: 13.1 min

SMILES: Cc1cc(C)nc(Nc2ccccc2)n1 [Pyrimethanil]
LC retention time [1]: 14.2 min

SMILES: CC(=O)OCC12CCC(C)=CC1OC1C(O)C(OC(C)=O)C2(C)C12CO2 (stereo unspecified) [Diacetoxyscirpenol]
LC retention time [1]: 12.1 min

SMILES: Cc1ccccc1N=C=O [o-Tolyl isocyanate]
LC retention time [1]: 8.18 min

SMILES: CC(C)N(C(=O)CCl)c1ccccc1 [Propachlor]
LC retention time [1]: 13.3 min

SMILES: Cc1cc(C(C)(C)c2ccc(O)c(C)c2)ccc1O [Bisphenol C]
LC retention time [1]: 13.9 min

SMILES: CCOP(=S)(OCC)Oc1ccc2c(C)c(Cl)c(=O)oc2c1 [Coumaphos]
LC retention time [1]: 15.9 min

SMILES: CNC(=O)Oc1ccc(N(C)C)c(C)c1 [Aminocarb]
LC retention time [1]: 12.1 min

SMILES: Cc1ccccc1N [o-Toluidine]
LC retention time [1]: 9.21 min

SMILES: N#CC(CCc1ccc(Cl)cc1)(Cn1cncn1)c1ccccc1 (stereo unspecified) [Fenbuconazole]
LC retention time [1]: 15.5 min

SMILES: CCOP(=S)(OCC)SCSP(=S)(OCC)OCC [Ethion]
LC retention time [1]: 17.3 min

SMILES: CCCC(C)(COC(N)=O)COC(=O)NC(C)C (stereo unspecified) [Carisoprodol]
LC retention time [1]: 13.3 min

SMILES: CNC(=O)ON=CC(C)(C)S(C)(=O)=O [Aldicarb Sulfone]
LC retention time [1]: 9.41 min

SMILES: CC=C1N(C)C(C)CC1(c1ccccc1)c1ccccc1 (stereo unspecified) [EDDP]
LC retention time [1]: 17.4 min

SMILES: CC(C)(c1ccc(O)c(-c2ccccc2)c1)c1ccc(O)c(-c2ccccc2)c1 [Bisphenol PH]
LC retention time [1]: 17.1 min

SMILES: CC12CCC(=O)C=C1CCC1C2CCC2(C)C(O)CCC12 (stereo unspecified) [Testosterone]
LC retention time [1]: 14.6 min

SMILES: CCC(C)(NC(=O)c1cc(Cl)c(C)c(Cl)c1)C(=O)CCl (stereo unspecified) [Zoxamide]
LC retention time [1]: 16 min

SMILES: COc1cccc(C2(O)CCCCC2CN(C)C)c1 (stereo unspecified) [Tramadol]
LC retention time [1]: 14 min

SMILES: CNC(=O)ON=C(CSC)C(C)(C)C [Thiofanox]
LC retention time [2]: 11.7 min

SMILES: OC(c1ccc(Cl)cc1)(c1cncnc1)c1ccccc1Cl (stereo unspecified) [Fenarimol]
LC retention time [2]: 14.9 min

SMILES: COP(N)(=S)Oc1ccccc1C(=O)OC(C)C (stereo unspecified) [Isocarbophos]
LC retention time [2]: 13.2 min

SMILES: CC(C)(C)c1cc(-n2nc3ccc(Cl)cc3n2)c(O)c(C(C)(C)C)c1 [UV-327]
LC retention time [2]: 10.2 min

SMILES: CNC(=O)Oc1ccccc1C1OCCO1 [Dioxacarb]
LC retention time [2]: 15.1 min

The remaining lines, values ahead:

LC retention time [1]: 16.3 min
SMILES: O=C(OCc1ccccc1)c1ccccc1 [Benzoic acid benzyl ester]

LC retention time [1]: 14.3 min
SMILES: C#CC1(O)CCC2C3CCc4cc(OC)ccc4C3CCC21C (stereo unspecified) [Mestranol]

LC retention time [1]: 5.51 min
SMILES: CC(=O)N(CC(O)CO)c1c(I)c(C(=O)NCC(O)CO)c(I)c(C(=O)NCC(O)CO)c1I (stereo unspecified) [Iohexol]

LC retention time [1]: 11.5 min
SMILES: CCCCOCCOCCOCCO [Triethylene Glycol Monobutyl Ether]

LC retention time [1]: 14.2 min
SMILES: CC12CCC3c4ccc(O)cc4CCC3C1CCC2=O (stereo unspecified) [Estrone]

LC retention time [1]: 3.38 min
SMILES: Nc1ccn(C2OC(CO)C(O)C2(F)F)c(=O)n1 (stereo unspecified) [Gemcitabine]

LC retention time [1]: 5.99 min
SMILES: Nc1[nH]c(=O)ncc1F [5-Fluorocytosine]

LC retention time [1]: 14.6 min
SMILES: CCCCCSCCOCCOCCOCCO [3,6,9-Trioxa-12-thia-heptadecanol]

LC retention time [1]: 11.7 min
SMILES: NC(=O)N1c2ccccc2CC(=O)c2ccccc21 [Oxcarbazepine]

LC retention time [1]: 18.1 min
SMILES: Cc1cc(C(C)(C)C)c(O)c(C(C)(C)C)c1 [2,6-Di-tert.-butyl-4-methylphenol]

LC retention time [1]: 12.2 min
SMILES: CCNc1ccccc1 [N-Ethylaniline]

LC retention time [1]: 13.9 min
SMILES: CC(N)C12CC3CC(CC(C3)C1)C2 (stereo unspecified) [Rimantadin]

LC retention time [1]: 6.97 min
SMILES: O=c1[nH]sc2ccccc12 [1,2-Benzisothiazolinone]

LC retention time [1]: 10.2 min
SMILES: CNC(=C[N+](=O)[O-])NCCSCc1ccc(CN(C)C)o1 [Ranitidine]

LC retention time [1]: 14.1 min
SMILES: N#CSCSc1nc2ccccc2s1 [TCMTB]

LC retention time [1]: 3.77 min
SMILES: CS(=O)(=O)OCC(O)C(O)COS(C)(=O)=O (stereo unspecified) [Treosulfan]

LC retention time [1]: 11.4 min
SMILES: c1ccc2ncccc2c1 [Chinolin]

LC retention time [1]: 4.61 min
SMILES: COc1cc([N+](=O)[O-])ccc1O [4-Nitroguaiacol]

LC retention time [1]: 16.8 min
SMILES: CCCCCCCCCCCC[N+](C)(C)[O-] [N,N-Dimethyldodecylamine N-oxide]

LC retention time [1]: 9.67 min
SMILES: NS(=O)(=O)c1cc(C2(O)NC(=O)c3ccccc32)ccc1Cl (stereo unspecified) [Chlorthalidon]

LC retention time [1]: 13 min
SMILES: O=C(O)CC[C@@H](C(=O)O)N(CC(=O)O)CC(=O)O [N,N-Bis(carboxymethyl)-L-glutamic acid]

LC retention time [1]: 12 min
SMILES: Cc1cccc(C)c1O [2,6-Dimethylphenol]

LC retention time [1]: 17 min
SMILES: C=C(c1ccc(C(=O)O)cc1)c1cc2c(cc1C)C(C)(C)CCC2(C)C [Bexarotene]

LC retention time [1]: 13.5 min
SMILES: O=S(=O)(O)c1ccccc1C=Cc1ccc(-c2ccc(C=Cc3ccccc3S(=O)(=O)O)cc2)cc1 [Fluorescent brightener 351]

LC retention time [1]: 7.81 min
SMILES: Cc1c(NC=O)c(=O)n(-c2ccccc2)n1C [N-Formyl-4-aminoantipyrine]

LC retention time [1]: 11.3 min
SMILES: CC(C)N(C(=O)C(=O)O)c1ccccc1 [Propachlor oxanilic acid (OA)]

LC retention time [1]: 7.42 min
SMILES: Cc1c(C(=O)c2c[nH]n(C)c2=O)ccc(S(C)(=O)=O)c1C1=NOCC1 [Topramezone]

LC retention time [1]: 11.5 min
SMILES: CCC(C)Nc1nc(N)nc(Cl)n1 (stereo unspecified) [Desethylsebutylazin]

LC retention time [1]: 11.2 min
SMILES: O=C(O)c1cccc(Oc2ccccc2)c1 [3-Phenoxybenzoic acid]

LC retention time [1]: 2.02 min
SMILES: CC(Cn1cnc2c(N)ncnc21)OCP(=O)(O)O (stereo unspecified) [Tenofovir]

LC retention time [1]: 9.9 min
SMILES: CCOc1ccc(NC(C)=O)cc1 [Phenacetin]

LC retention time [1]: 9.17 min
SMILES: CCCCCCS(=O)(=O)O [1-Hexanesulfonic acid]

LC retention time [1]: 12.6 min
SMILES: NC(=O)N1c2ccccc2C=Cc2ccccc21 [Carbamazepin]

LC retention time [1]: 14.2 min
SMILES: CC(=O)SC1CC2=CC(=O)CCC2(C)C2CCC3(C)C(CCC34CCC(=O)O4)C12 (stereo unspecified) [Spironolactone]

LC retention time [1]: 12.3 min
SMILES: CCN(CC)CCNC(=O)c1cc(Cl)c(N)cc1OC [Metoclopramide]

LC retention time [1]: 7.78 min
SMILES: Cn1c(=O)c2c(ncn2C)n(C)c1=O [Caffeine]

LC retention time [1]: 4.27 min
SMILES: COc1ccc(S(=O)(=O)O)cc1 [4-Methoxybenzenesulfonic acid]

LC retention time [1]: 13.1 min
SMILES: CNC(=O)Nc1ccc(C(C)C)cc1 [1-(4-Isopropylphenyl)-3-methyl-Harnstoff]

LC retention time [1]: 13.3 min
SMILES: Cc1ccc(C)c(O)c1C [2,3,6-Trimethylphenol]

LC retention time [1]: 11.2 min
SMILES: Cc1ccc(NC=O)c(C)c1 [2,4-Dimethylformanilide]

LC retention time [1]: 10.4 min
SMILES: NC12CC3CC(C1)CC(O)(C3)C2 [3-Amino-1-adamantanol]

LC retention time [1]: 9.95 min
SMILES: CC(C)Nc1nc(N)nc(Cl)n1 [Desethylatrazine]

LC retention time [1]: 7.94 min
SMILES: CC(=O)Nc1c(C)n(C)n(-c2ccccc2)c1=O [N-Acetyl-4-aminoantipyrine]

LC retention time [1]: 13.5 min
SMILES: c1ccc(OCCOc2ccccc2)cc1 [Ethylene glycol diphenylether]

LC retention time [1]: 5 min
SMILES: O=C(O)C=Cc1ccccc1O [2-Hydroxycinnamic acid]

LC retention time [2]: 8.45 min
SMILES: N#Cc1ccccc1C#N [Phthalonitrile]

LC retention time [2]: 6.8 min
SMILES: O=C(O)c1cc(=O)c2cccc(O)c2[nH]1 [Xanthurenic acid]

LC retention time [2]: 2.59 min
SMILES: Nc1ccc(F)cc1 [Picolinafen-Fluoroaniline]

LC retention time [2]: 5.15 min
SMILES: COc1nc(C)nc(N)n1 [2-Amino-4-methoxy-6-methyl-1.3.5-triazine (MMT)]

LC retention time [2]: 3.3 min
SMILES: Cn1sccc1=O [2-Methyl-4-isothiazolin-3-one]

LC retention time [2]: 11.9 min
SMILES: CCOCN(C(=O)CS(=O)(=O)O)c1c(C)cccc1CC [Acetochlor ESA]

LC retention time [2]: 8.9 min
SMILES: N#Cc1ccccc1Oc1cc(=O)[nH]cn1 [Azoxystrobin-metabolite]

LC retention time [2]: 5.8 min
SMILES: Cn1c(=O)c2[nH]c(=O)[nH]c2n(C)c1=O [1,3-Dimethyluric acid]

LC retention time [2]: 15.9 min
SMILES: CCCC(=O)Nc1ccc(OCC(O)CNC(C)C)c(C(C)=O)c1 (stereo unspecified) [Acebutolol]
